Patent US6428804B1, “Intra-articular preparation for the treatment of arthropathy” (SSP Co., Ltd., priority 1997, dated 2002)

Tests used:
[1] = Pharmacokinetic test of MTX-containing microcapsules (Test 8); type: in vivo; conditions: rabbit knee joint, 1 mg in terms of MTX (FIG. 11)
Method: The MTX-containing microcapsules obtained in Example 26 were suspended in the same injection-grade dispersion medium as that employed in Test 1. The resulting suspension was injected in a dose of 1 mg in terms of MTX into a knee joint of a rabbit, and the amount of MTX in the synovium and its peripheral tissue was measured periodically. As a control, MTX was dissolved in a phosphate buffer of pH 7.5 and the resulting solution was injected in a dose of 1 mg in terms of MTX.

[2] = Pharmacokinetic test of DFNa-containing microcapsules (Test 6); type: in vivo; conditions: rabbit knee joint, 1 mg in terms of DFNa, solution in physiological saline (FIG. 9)
Method: The DFNa-containing microcapsules (average particle size: 67.9 μm) obtained in Example 25 were suspended in the same injection-grade dispersion medium as that employed in Test 1. The resulting suspension was injected in a dose of 10 mg in terms of DFNa into a knee joint of a rabbit, and the amount of DF in the synovium and its peripheral tissue was measured periodically. As a control, a solution of DFNa in a physiological saline was injected in a dose of 1 mg in terms of DFNa, and measurements were conducted.

Row | amount of MTX in the synovium and its peripheral tissue [1] | amount of DF in the synovium and its peripheral tissue [2] | SMILES
1 | no existence of MTX was observed | – | CN(Cc1cnc2nc(N)nc(N)c2n1)c1ccc(C(=O)N[C@@H](CCC(=O)O)C(=O)O)cc1 [solution of MTX in the phosphate buffer, Methotrexate]
2 | – | no existence of DF was observed | O=C(O)Cc1ccccc1Nc1c(Cl)cccc1Cl [diclofenac sodium]
